Data as given in publication PMC12676205, “New Se‐Compounds With Antileishmanial, Antitumor, and Carbonic Anhydrase Inhibitory Properties” (Archiv Der Pharmazie, 2025).
Where two headings read alike, the source gives them in different places.

Columns and labels:
[1] = tested on: NCI‐60 human cancer cell lines; assay: NCI-60 five-dose assay, whole panel; type: cell-based; conditions: 48 h, bound for every subpanel
Procedure: (§1) All the compounds were selected for further testing since they fulfilled the set NCI one‐dose screening parameters for threshold inhibition. They were tested at five different concentrations (0.01, 0.1, 1, 10, and 100 μM) for 48 h against the same cell line panel and the dose–response curves along with three response parameters (50% growth inhibitory concentration [GI50], the 50% lethal concentration [LC50], and the total growth inhibition [TGI]) were calculated for every cancer cell line. The full reported data and corresponding graphs are compiled in Supporting Information S1. Average values of GI50, TGI, and LC50 values of all the reported selenoesters in all the subpanels are represented in Figure 4.
(§2) All the reported selenoesters (1–6) were submitted to the DTP of NCI. First, they were screened at a single dose (10^−5 M) against a panel of 60 cancer cell lines derived from different tumor types following the methodology available (https://dtp.cancer.gov/discovery_development/nci-60/methodology.htm). As all the compounds satisfied the threshold inhibition criteria established, they were further assessed at five concentrations (0.01, 0.1, 1, 10, and 100 µM) against the same cell panel to obtain their corresponding dose–response curves and three antitumor parameters (GI50, TGI, and LC50) by regression. GraphPad Prism 7.0 Software was used to represent the corresponding graphs.

[2] = tested on: L. infantum promastigotes; assay: Leishmanicidal activity against promastigotes (MTT), L. infantum; type: cell-based, Leishmania infantum
Procedure: (§3) The synthesized compounds were tested for their antileishmanial activity against promastigotes of L. major and L. infantum at four concentrations (1, 10, 50, and 100 µM) for 48 h using the 3‐(4,5‐dimethylthiazol‐2‐yl)‐2,5‐diphenyltetrazolium bromide (MTT) assay. In this evaluation, the activity was expressed in IC50 (concentration inhibiting the parasite growth by 50%). […] The CC50 was defined as the concentration of selenoesters that led to a reduction in the viability of the macrophages, such that only 50% of the cells survived when compared to the control group. This cell line, derived from the blood of a human with acute monocytic leukemia, was chosen as it has been widely reported that it resembles tissue macrophages to various extents as well as supports the infection by numerous Leishmania promastigotes. The selectivity indexes (SIs) were calculated as the ratio between toxicity on macrophages (THP‐1 cells)/antileishmanial activity. The data for standard control drugs (miltefosine and paromomycin) are included for comparison purposes.
(§4) The promastigotes of L. major (clone VI, MHOM/IL/80/Friendlin) and L. infantum (BCN‐150) were grown at 26°C under continuous shaking in M199 1× medium (Sigma, USA). This media was supplemented with 10% of heat‐inactivated fetal bovine serum (FBS) (Gibco, USA), 0.0005% (w/v) hemin, 0.1 mM adenine, 25 mM HEPES (pH 7.2), 0.0001% (w/v) biotin, and 100 UI/mL penicillin and […] streptomycin (Gibco, USA).
(§5) The antileishmanial activity of the reported selenoesters was determined using the MTT assay as previously described during the logarithmic growth phase of the tested promastigotes of L. major and L. infantum. Briefly, the Leishmania parasites were seeded into 96‐well flat‐bottom plates (3 × 10^5 parasites/100 µL) and treated with four different concentrations ranging between 1 and 100 µM of each selenoester at 26°C for 48 h. Afterwards, 20 µL of MTT (5 mg/mL in PBS) was added to each well and incubated for 4 h under the same conditions. Then, 80 µL/well of DMSO was added to dissolve the resultant formazan crystals. The absorbances were determined on a Multiskan EX photometric plate reader for microplates at 540 nm. Three independent experiments performed in triplicate were carried out for each compound, and OriginPro 8.5.1 Software was used to calculate the IC50 values by fitting the data to a dose–inhibition sigmoid curve.

Breast subpanel = assay: NCI-60 five-dose assay, breast subpanel; type: cell-based; conditions: Homo sapiens, 48 h; for GI50: read-out: Mean GI50 Breast; for LC50: read-out: Mean LC50 Breast
Procedure: as §1, §2

Leukemia subpanel [3] = assay: NCI-60 one-dose screen, leukemia subpanel; type: cell-based, human; conditions: 10 µM, 48 h
Procedure: (§6) To explore the potential antiproliferative properties of the newly synthesized derivatives, they were submitted to the National Cancer Institute's (NCI) Developmental Therapeutics Program (DTP) for screening at 10 μM in a panel of approximately 60 human cancer cell lines from different cancer types. The results are reported as the growth percentage (GP), which is the growth of the treated cells with each compound for 48 h compared to the untreated controls (Figure 2). […] The initial screening results are summarized in Figure 2, and the mean GP values of each subpanel are depicted in Figure 3. The full reports are compiled in the Supplementary Section.
as §2

hCA IX = target: T1, hCA IX (Homo sapiens, UniProt Q16790); assay: biochemical; conditions: stopped flow technique, mean from three assays
T1 construct: made in house
Procedure: (§7) An Applied Photophysics stopped‐flow instrument was used to assay the CA‐catalyzed CO2 hydration activity [52]. […] The uncatalyzed rates were determined in the same manner and subtracted from the total observed rates. Stock solutions of the inhibitor (0.1 mM) were prepared in distilled–deionized water, and dilutions up to 0.01 nM were done thereafter with the assay buffer. Inhibitor and enzyme solutions were preincubated together for 15 min at room temperature before the assay, to allow for the formation of the E–I complex. The inhibition constants were obtained by Nonlinear least‐squares methods using PRISM 3 and the Cheng‐Prusoff equation as reported earlier and represent the mean from at least three different determinations. All CA isoforms were recombinant proteins obtained in‐house, as reported earlier [54, 55, 56].

Renal subpanel [4] = assay: NCI-60 five-dose assay, renal subpanel; type: cell-based; conditions: Homo sapiens, 48 h; for GI50: read-out: Mean GI50 Renal; for LC50: read-out: Mean LC50 Renal
Procedure: as §1, §2

Melanoma subpanel = assay: NCI-60 five-dose assay, melanoma subpanel; type: cell-based; conditions: Homo sapiens, 48 h; for GI50: read-out: Mean GI50 Melanoma; for LC50 (50% lethal concentration): read-out: Mean LC50 Melanoma
Procedure: as §1, §2

Prostate subpanel [5] = assay: NCI-60 five-dose assay, prostate subpanel; type: cell-based, human; conditions: 48 h; for GI50 / CC50: Homo sapiens; for GI50: read-out: Mean GI50 Prostate; for CC50: read-out: Mean LC50 Prostate
Procedure: as §1, §2

hCA II = target: T2, hCA II (Homo sapiens, UniProt P00918); assay: hCA II inhibition, stopped-flow CO2 hydration assay; type: biochemical; conditions: stopped flow technique, mean from three assays
T2 construct: made in house
Procedure: as §7

Renal subpanel [6] = assay: NCI-60 one-dose screen, renal subpanel; type: cell-based, human; conditions: 10 µM, 48 h
Procedure: as §6, §2

L. major promastigotes = assay: Leishmanicidal activity against promastigotes (MTT), L. major; type: cell-based, Leishmania major
Procedure: as §3, §4, §5

Leukemia subpanel [7] = assay: NCI-60 five-dose assay, leukemia subpanel; type: cell-based; conditions: Homo sapiens, 48 h; for GI50: read-out: Mean GI50 Leukemia; for CC50: read-out: Mean LC50 Leukemia
Procedure: as §1, §2

OVCAR‐5 = assay: NCI-60 one-dose screen, OVCAR-5; type: cell-based, human; conditions: 10 µM, 48 h
Procedure: as §6, §2

Prostate subpanel [8] = assay: NCI-60 one-dose screen, prostate subpanel; type: cell-based, human; conditions: 10 µM, 48 h
Procedure: as §6, §2

[9] = Leishmania infantum, 48 h, mean ± SD, read-out: L. infantum IC50
[10] = Leishmania major, 48 h, mean ± SD, read-out: L. major IC50
[11] = 48 h, mean ± SD, read-out: L. infantum IC50
[12] = read-out: L. infantum IC50, 48 h, mean ± SD
[13] = 48 h, mean ± SD, read-out: L. major IC50
[14] = read-out: L. major IC50, 48 h, mean ± SD

SMILES	mean TGI values against all the subpanels tested [1]	IC50 [2, 9]	GI50 (Breast subpanel)	LC50 (Breast subpanel)	average growth cell value, Leukemia (Leukemia subpanel [3])	Ki (hCA IX)	GI50 (Renal subpanel [4])	LC50 (Renal subpanel [4])	GI50 (Melanoma subpanel)	LC50 (50% lethal concentration) (Melanoma subpanel)	GI50 (Prostate subpanel [5])	CC50 (Prostate subpanel [5])	Ki (hCA II)	average growth cell value, Renal (Renal subpanel [6])	IC50 (L. major promastigotes; [10])	GI50 (Leukemia subpanel [7])	CC50 (Leukemia subpanel [7])	behaviour in OVCAR‐5 (OVCAR‐5)	average growth cell value, Prostate (Prostate subpanel [8])	IC50 [2, 11]	other results
O=C(C[Se]C(=O)c1ccccc1)Nc1ccc([N+](=O)[O-])c(C(F)(F)F)c1 [Compound 2, Se‐(2‐((4‐nitro‐3‐(trifluoromethyl)phenyl)amino)‐2‐oxoethyl)benzoselenoate]	below 5 µM	29.4 ± 2.1 µM	1.48 µM	7.68 µM	-94.69%	76.3 µM	1.38 µM	5.2 µM	1.24 µM	5.37 µM	1.44 µM	5.66 µM	50.4 µM	-96.22%	27.1 ± 3.35 µM	0.9 µM	4.34 µM	cytotoxic activity	-94.40%	–	–
O=C(C[Se]C(=O)c1ccco1)Nc1ccc([N+](=O)[O-])c(C(F)(F)F)c1 [Compound 5, Se‐(2‐((4‐nitro‐3‐(trifluoromethyl)phenyl)amino)‐2‐oxoethyl)furan‐2‐carboselenoate]	–	32.9 ± 8.25 µM	2.01 µM	–	6.59%	21.1 µM	2.2 µM	–	1.7 µM	–	1.85 µM	54.4 µM	83.3 µM	-39.51%	18.3 ± 5.9 µM	2.51 µM	> 100 µM	cytotoxic activity	-27.89%	–	–
O=C(C[Se]C(=O)c1ccco1)Nc1cccc(OC(F)(F)F)c1 [Compound 6, Se‐(2‐oxo‐2‐((3‐(trifluoromethoxy)phenyl)amino)ethyl)furan‐2‐carboselenoate]	–	6 to 10 µM	3.08 µM	–	39.71%	35.9 µM	5.62 µM	–	4.95 µM	–	5.38 µM	100 µM	8.2 µM	-17.86%	6 to 10 µM	6.45 µM	> 100 µM	cytostatic behavior	-15.23%	5.99 ± 2.33 µM	GI50 ([1]; Homo sapiens, read-out: mean GI50 values in all the cancer subpanels tested): < 10 µM; IC50 [2, 12]: < 10 µM; cytotoxic activity (LC50) in the prostate cancer subpanel (Prostate subpanel [5]; five-dose): devoid of activity; IC50 (L. major promastigotes; [13]): 10.1 ± 1.27 µM; IC50 (L. major promastigotes; [14]): < 10 µM
N#Cc1ccc(NC(=O)C[Se]C(=O)c2ccccc2)cc1C(F)(F)F [Compound 1, Se‐(2‐((4‐cyano‐3‐(trifluoromethyl)phenyl)amino)‐2‐oxoethyl)benzoselenoate]	below 5 µM	29.2 ± 2.65 µM	1.61 µM	8.02 µM	-96.53%	57.2 µM	1.57 µM	6.11 µM	1.36 µM	5.49 µM	1.54 µM	5.91 µM	80.4 µM	-95.41%	26.6 ± 1.81 µM	1.01 µM	4.36 µM	cytotoxic activity	-95.47%	–	–
O=C(C[Se]C(=O)c1ccccc1)Nc1cccc(OC(F)(F)F)c1 [Compound 3, Se‐(2‐oxo‐2‐((3‐(trifluoromethoxy)phenyl)amino)ethyl)benzoselenoate]	–	6 to 10 µM	2.62 µM	22.6 µM	-36.81%	80.2 µM	2.33 µM	15.4 µM	2.33 µM	13.6 µM	2.16 µM	12.6 µM	82.4 µM	-61.17%	6 to 10 µM	3.06 µM	19.6 µM	cytostatic behavior	-48.28%	6.59 ± 3.73 µM	IC50 [2, 12]: < 10 µM; IC50 (L. major promastigotes; [13]): 9.67 ± 0.78 µM; IC50 (L. major promastigotes; [14]): < 10 µM
